Read-outs that look alike come from different tables or passages of the source.
How the values were obtained:
[1] = biological target: T1, Full-length (FL)-PRMT5-MEP50 enzyme complex (Homo sapiens, UniProt O14744); assay: PRMT5-MEP50 Enzyme Methylation Assay (Version A); assay type: biochemical
T1 construct: Full-length (FL)-PRMT5-MEP50 enzyme complex (recombinant proteins from baculovirus-transfected Sf21 cells: FL-PRMT5; MW=73837 kDa and FL-MEP50; MW=38614); made in house; host or cells: baculovirus-transfected Sf21 cells
In short: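 Compound was pre-incubated with enzyme for 60 min, then reacted 150 min at 37° C. at final 1.0 nM PRMT5-MEP50, 15 μM SAM and 75 nM biotinylated H4R3(Me1) peptide, in 50 mM Bicine pH 8.0 with 1% DMSO. SAMDI mass-spectrometric readout of Me1→Me2 conversion. EC50 from 4- or 7-parameter regression.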

[2] = system: symmetric dimethylation of arginine (SDMA) of PRMT5 substrates in MCF-7 cells; assay: PRMT5 Cell Target Engagement (TE) Assay; assay type: cell-based; settings: Homo sapiens, MCF7, 72 h, 3 days treatment, SDMA high content imaging
In short: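 MCF-7 cells treated 3 days at 37 °C with a ten-point 1:3 titration from 10000 nM. Fixed cells immunostained with anti-SDMA and Alexa488 secondary; nuclear fluorescence quantified by high-content imaging versus DMSO wells, with IC50 from a 4-parameter fit.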

[3] = single EC50 = 4 parameter single site sigmoidal fit, EC50 1 = first value of 7 parameter biphasic fit, read-out: Enzyme Methylation Assay Version A (EC50 or EC50 1)
[4] = second value of 7 parameter biphasic fit, read-out: Enzyme Methylation Assay Version A (EC50 2)

T1 sequence (O14744 whole entry): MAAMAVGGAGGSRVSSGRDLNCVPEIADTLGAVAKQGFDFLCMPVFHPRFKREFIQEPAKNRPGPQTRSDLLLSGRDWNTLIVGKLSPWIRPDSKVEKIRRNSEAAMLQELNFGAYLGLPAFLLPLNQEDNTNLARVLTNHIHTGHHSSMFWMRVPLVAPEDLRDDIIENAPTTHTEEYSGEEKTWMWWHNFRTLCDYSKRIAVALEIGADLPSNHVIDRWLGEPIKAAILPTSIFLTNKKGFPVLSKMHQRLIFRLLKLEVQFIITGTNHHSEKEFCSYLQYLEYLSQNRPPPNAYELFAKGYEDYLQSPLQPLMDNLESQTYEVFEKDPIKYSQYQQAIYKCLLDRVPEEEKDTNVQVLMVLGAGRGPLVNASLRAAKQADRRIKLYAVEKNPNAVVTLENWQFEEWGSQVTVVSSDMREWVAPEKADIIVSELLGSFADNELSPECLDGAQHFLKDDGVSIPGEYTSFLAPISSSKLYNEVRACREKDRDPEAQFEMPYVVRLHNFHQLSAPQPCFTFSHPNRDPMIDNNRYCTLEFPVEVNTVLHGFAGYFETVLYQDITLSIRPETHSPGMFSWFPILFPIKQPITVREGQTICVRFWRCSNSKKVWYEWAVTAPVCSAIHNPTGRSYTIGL
T1 sequence (Q9BQA1 whole entry partner): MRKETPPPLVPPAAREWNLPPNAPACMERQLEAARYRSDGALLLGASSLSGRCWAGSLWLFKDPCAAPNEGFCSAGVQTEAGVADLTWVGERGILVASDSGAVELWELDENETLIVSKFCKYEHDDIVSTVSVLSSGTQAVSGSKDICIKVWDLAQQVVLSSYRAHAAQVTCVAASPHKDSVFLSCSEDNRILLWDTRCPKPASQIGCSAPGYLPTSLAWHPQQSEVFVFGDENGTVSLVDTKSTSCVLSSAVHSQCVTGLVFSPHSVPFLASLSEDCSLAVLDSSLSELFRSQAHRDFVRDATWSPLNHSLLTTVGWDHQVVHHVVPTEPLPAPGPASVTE

EC50 [1, 3] [nM]	EC50 [2] [nM]	EC50 [1, 4] [nM]	SMILES
20.6	62.7	–	CO[C@H](C)c1cc(N2Cc3ncsc3C2)cn2cc(C(=O)N3CC[C@]4(Cc5ccccc5CN4)[C@H](O)C3)nc12 [Example 235, {6-(4,6-dihydro-5H-pyrrolo[3,4-d][1,3]thiazol-5-yl)-8-[(1R)-1-methoxyethyl]imidazo[1,2-a]pyridin-2-yl}[(3R,3′R)-3′-hydroxy-1,4-dihydro-1′H,2H-spiro[isoquinoline-3,4′-piperidin]-1′-yl]methanone]
9.13	258	1840	CO[C@H](C)c1cccn2cc(C(=O)N3CC[C@]4(Cc5ccccc5CN4)[C@H](O)C3)nc12 [Example 237, [(3R,3′R)-3′-hydroxy-1,4-dihydro-1′H,2H-spiro[isoquinoline-3,4′-piperidin]-1′-yl]{8-[(1R)-1-methoxyethyl]imidazo[1,2-a]pyridin-2-yl}methanone]
1.27	4.25	–	COc1cccnc1-c1cc([C@@H](C)OC)c2nc(C(=O)N3CC[C@]4(Cc5ccccc5CN4)[C@H](O)C3)cn2c1 [Example 238, [(3R,3′R)-3′-hydroxy-1,4-dihydro-1′H,2H-spiro[isoquinoline-3,4′-piperidin]-1′-yl]{8-[(1R)-1-methoxyethyl]-6-(3-methoxy-2-pyridinyl)imidazo[1,2-a]pyridin-2-yl}methanone]
0.613	3.33	–	CO[C@H](C)c1cc(-c2cccnc2C)cn2cc(C(=O)N3CC[C@]4(Cc5ccccc5CN4)[C@H](O)C3)nc12 [Example 239, [(3R,3′R)-3′-hydroxy-1,4-dihydro-1′H,2H-spiro[isoquinoline-3,4′-piperidin]-1′-yl]{8-[(1R)-1-methoxyethyl]-6-(2-methyl-3-pyridinyl)imidazo[1 2-a]pyridin-2-yl}methanone]
0.376	21	112	COc1nccc(-c2cc([C@@H](C)OC)c3nc(C(=O)N4CC[C@]5(Cc6ccccc6CN5)[C@H](O)C4)cn3c2)n1 [Example 240, [(3R,3′R)-3′-hydroxy-1,4-dihydro-1′H,2H-spiro[isoquinoline-3,4′-piperidin]-1′-yl]{8-[(1R)-1-methoxyethyl]-6-(2-methoxy-4-pyrimidinyl)imidazo[1,2-a]pyridin-2-yl}methanone]
0.932	4.87	211	CO[C@H](C)c1cc(-c2cncs2)cn2cc(C(=O)N3CC[C@]4(Cc5ccccc5CN4)[C@H](O)C3)nc12 [Example 241, [(3R,3′R)-3′-hydroxy-1,4-dihydro-1′H,2H-spiro[isoquinoline-3,4′-piperidin]-1′-yl]{8-[(1R)-1-methoxyethyl]-6-(1,3-thiazol-5-yl)imidazo[1,2-a]pyridin-2-yl}methanone]
0.7	1.81	–	CO[C@H](C)c1cc(-c2ccnn2C)cn2cc(C(=O)N3CC[C@]4(Cc5ccccc5CN4)[C@H](O)C3)nc12 [Example 242, [(3R,3′R)-3′-hydroxy-1,4-dihydro-1′H,2H-spiro[isoquinoline-3,4′-piperidin]-1′-yl]{8-[(1R)-1-methoxyethyl]-6-(1-methyl-1H-pyrazol-5-yl)imidazo[1,2-a]pyridin-2-yl}methanone]

Further lines, the compound ahead of its results:

SMILES	EC50 [1, 3] [nM]	EC50 [2] [nM]	EC50 [1, 4] [nM]
O=C(c1cn2cc(Br)cc(Br)c2n1)N1CC[C@]2(Cc3ccccc3CN2)[C@H](O)C1 [Example 218, (6,8-dibromoimidazo[1,2-a]pyridin-2-yl)[(3R,3′R)-3′-hydroxy-1,4-dihydro-1′H,2H-spiro[isoquinoline-3,4′-piperidin]-1′-yl]methanone]	1.97	4.07	–
Cc1ccc(C(=O)N2CC[C@]3(Cc4ccccc4CN3)[C@H](O)C2)c(O)n1 [Example 219, 3-{[(3R,3′R)-3′-hydroxy-1,4-dihydro-1′H,2H-spiro[isoquinoline-3,4′-piperidin]-1′-yl]carbonyl}-6-methyl-2(1H)-pyridinone]	204	4160	17400
Cc1ccc(C(=O)N2CC[C@]3(Cc4ccccc4CN3)[C@H](O)C2)c(C)n1 [Example 220, (2,6-dimethyl-3-pyridinyl)[(3R,3′R)-3′-hydroxy-1,4-dihydro-1′H,2H-spiro[isoquinoline-3,4′-piperidin]-1′-yl]methanone]	83.2	2100	2600
Cc1ccc(C(=O)N2CC[C@]3(Cc4ccccc4CN3)[C@H](O)C2)cn1 [Example 221, [(3R,3′R)-3′-hydroxy-1,4-dihydro-1′H,2H-spiro[isoquinoline-3,4′-piperidin]-1′-yl](6-methyl-3-pyridinyl)methanone]	43.6	2540	3510
O=C(c1cn(C2CC2)cn1)N1CC[C@]2(Cc3ccccc3CN2)[C@H](O)C1 [Example 222, (1-cyclopropyl-1H-imidazol-4-yl)[(3R,3′R)-3′-hydroxy-1,4-dihydro-1′H,2H-spiro[isoquinoline-3,4′-piperidin]-1′-yl]methanone]	432	≥ 10000	25400
Cc1cn2cc(C(=O)N3CC[C@]4(Cc5ccccc5CN4)[C@H](O)C3)nc2s1 [Example 223, [(3R,3′R)-3′-hydroxy-1,4-dihydro-1′H,2H-spiro[isoquinoline-3,4′-piperidin]-1′-yl](2-methylimidazo[2,1-b][1,3]thiazol-6-yl)methanone]	22.1	445	631
O=C(c1cn(C(F)F)cn1)N1CC[C@]2(Cc3ccccc3CN2)[C@H](O)C1 [Example 224, [1-(difluoromethyl)-1H-imidazol-4-yl][(3R,3′R)-3′-hydroxy-1,4-dihydro-1′H,2H-spiro[isoquinoline-3,4′-piperidin]-1′-yl]methanone]	3510	≥ 10000	66800
Cc1ccc2c(c1)CN[C@@]1(CCN(C(=O)c3cn4cc(C5CC5)cnc4n3)C[C@H]1O)C2 [Example 228]	144	254	–
COCCN(C)c1cc([C@@H](C)OC)c2nc(C(=O)N3CC[C@]4(Cc5ccccc5CN4)[C@H](O)C3)cn2c1 [Example 229, [(3R,3′R)-3′-hydroxy-1,4-dihydro-1′H,2H-spiro[isoquinoline-3,4′-piperidin]-1′-yl]{8-[(1R)-1-methoxyethyl]-6-[(2-methoxyethyl)(methyl)amino]imidazo[1,2-a]pyridin-2-yl}methanone]	0.602	22.6	234
CO[C@H](C)c1cc(N2CCC(n3ccnc3)C2)cn2cc(C(=O)N3CC[C@]4(Cc5ccccc5CN4)[C@H](O)C3)nc12 (stereo partly drawn) [Example 230, [(3R,3′R)-3′-hydroxy-1,4-dihydro-1′H,2H-spiro[isoquinoline-3,4′-piperidin]-1′-yl]{6-[3-(1H-imidazol-1-yl)-1-pyrrolidinyl]-8-[(1R)-1-methoxyethyl]imidazo[1,2-a]pyridin-2-yl}methanone]	5.38	124	–
CO[C@H](C)c1cc(N2Cc3cnn(C)c3C2)cn2cc(C(=O)N3CC[C@]4(Cc5ccccc5CN4)[C@H](O)C3)nc12 [Example 231, [(3R,3′R)-3′-hydroxy-1,4-dihydro-1′H,2H-spiro[isoquinoline-3,4′-piperidin]-1′-yl]{8-[(1R)-1-methoxyethyl]-6-(1-methyl-4,6-dihydropyrrolo[3,4-c]pyrazol-5(1H)-yl)imidazo[1,2-a]pyridin-2-yl}methanone]	11.3	66.4	–
CO[C@H](C)c1cc(N2CCn3nccc32)cn2cc(C(=O)N3CC[C@]4(Cc5ccccc5CN4)[C@H](O)C3)nc12 [Example 232, {6-(2,3-dihydro-1H-imidazo[1,2-b]pyrazol-1-yl)-8-[(1R)-1-methoxyethyl]imidazo[1,2-a]pyridin-2-yl}[(3R,3′R)-3′-hydroxy-1,4-dihydro-1′H,2H-spiro[isoquinoline-3,4′-piperidin]-1′-yl]methanone]	5	67.3	–
CO[C@H](C)c1cc(N(C)CCn2ccnc2C)cn2cc(C(=O)N3CC[C@]4(Cc5ccccc5CN4)[C@H](O)C3)nc12 [Example 233, [(3R,3′R)-3′-hydroxy-1,4-dihydro-1′H,2H-spiro[isoquinoline-3,4′-piperidin]-1′-yl](8-[(1R)-1-methoxyethyl]-6-{methyl[2-(2-methyl-1H-imidazol-1-yl)ethyl]amino}imidazo[1,2-a]pyridin-2-yl)methanone]	3.69	76.2	–
CO[C@H](C)c1cc(N(C)Cc2nonc2C)cn2cc(C(=O)N3CC[C@]4(Cc5ccccc5CN4)[C@H](O)C3)nc12 [Example 234, [(3R,3′R)-3′-hydroxy-1,4-dihydro-1′H,2H-spiro[isoquinoline-3,4′-piperidin]-1′-yl](8-[(1R)-1-methoxyethyl]-6-{methyl[(4-methyl-1,2,5-oxadiazol-3-yl)methyl]amino}imidazo[1,2-a]pyridin-2-yl)methanone]	6.82	23.8	–
CO[C@H](C)c1cc(N2CC3(CCCO3)C2)cn2cc(C(=O)N3CC[C@]4(Cc5ccccc5CN4)[C@H](O)C3)nc12 [Example 236, [(3R,3′R)-3′-hydroxy-1,4-dihydro-1′H,2H-spiro[isoquinoline-3,4′-piperidin]-1′-yl]{8-[(1R)-1-methoxyethyl]-6-(5-oxa-2-azaspiro[3.4]oct-2-yl)imidazo[1,2-a]pyridin-2-yl}methanone]	7.09	20.6	–
